Reference: a melting point compilation (Tetko et al.; mined from patent text by program, amines drawn as free bases though some values may be those of a salt)

In the case of `O=C(C(=Cc1ccc([N+](=O)[O-])cc1)c1ccccc1)c1ccc(O)cc1`, the melting point is reported as 153 to 157 °C.
`CNC(=NS(=O)(=O)C(F)(F)F)SC` gave a melting point of 88 to 89 °C.
In the case of `CNS(=O)(=O)c1cc(C(=O)NNC(=O)c2occ(-c3ccccc3)c2-c2ccccc2)ccc1O`, the melting point is reported as 119 to 120 °C.
`COc1cc(C=O)ccc1OCC(=O)NCCO[N+](=O)[O-]` showed a melting point of 117 to 120 °C.
In the case of `CC(=O)Nc1nc(-c2ccccc2)c(-c2ccnc(Nc3ccccc3)n2)s1`, the melting point is reported as > 260 °C.
For `O=C(O)Cc1ccc(Br)c(O)c1Br`, the melting point was 186 °C.
`CS(=O)(=O)CC(=O)CCc1ccccc1` showed a melting point of 97.6 to 98.4 °C.
In the case of `CC(=O)Nc1cc(-c2c(-c3cccc(C)c3)nc3cccnn23)ccn1`, the melting point is reported as 227 to 228 °C.
Work on `O=C(O)c1cn(CCF)c2cc(Cl)c(F)cc2c1=O` yielded a melting point of 262 to 264 °C.
Compound `CC1COc2c(ccc(F)c2F)N1C(=O)C=NO` (centres undefined) has a melting point of 188 to 190 °C.
For `CC(C)(C)OC(=O)NC(CI)c1ccc(F)cc1` (centres undefined), the melting point was 138 to 139 °C.
In the case of `CSc1sc(-c2nnc(C)o2)c2c1C(=O)CC(C)(C)C2`, the melting point is reported as 186 to 188 °C.
For `Cc1ccccc1C(=O)Nc1ccc(C(=O)N2CCCC(OCCO)c3cc(Cl)ccc32)cc1` (centres undefined), the melting point was 185 to 188 °C.
In the case of `CC1CC(c2cc3c(F)cccc3s2)CCN1` (centres undefined), the melting point is reported as 63 to 65 °C.
For `Nc1cc(=O)n(Cc2ccc(I)cc2)[nH]1`, the melting point was 158 °C.
With `O=C(O)[C@H](Cc1ccccc1)Nc1c(NCc2cccnc2)c(=O)c1=O` the melting point was 259 to 261 °C.
`O=[N+]([O-])c1cccc(C=CC=Cc2ccccc2)c1` gave a melting point of 144 °C.
`OC(CCN1CC=C(c2ccc(Cl)cc2)CC1)c1cccc2ccccc12` (centres undefined) showed a melting point of 122 to 123 °C.
`N#CC1c2cc(Cl)c(Cl)cc2C=CN1C(=O)c1ccccc1` (centres undefined) showed a melting point of 194 to 196 °C.
For `COc1ccc2c(c1)C(=C1CCN(Cc3ccccc3)CC1)C(=O)N2`, the melting point was 152 °C.
For `COc1cc2c(c3c1OC(C)(C)C3)C(c1cccc(Nc3cccnc3)c1)=NC(C)(C)C2`, the melting point was 204 to 205 °C.
With `COc1ccc(C(O)(c2ccc3nc(Cl)nc(-c4cccc(Cl)c4)c3c2)c2cncn2C)cc1` (centres undefined) the melting point was 144 °C.
`CC(C)CC(C)c1ccccc1NC(=O)c1cn(C)cc1C(F)(F)F` (centres undefined) showed a melting point of 83 to 85 °C.
In the case of `CC(C)OC(=O)Nc1ccc(-c2ccnc3c(C(=O)c4cccs4)cnn23)s1`, the melting point is reported as 210 to 215 °C.
With `CCN1c2ncc(C#Cc3ccccc3)cc2C(=O)N(C)c2cccnc21` the melting point was 228 to 229 °C.
Work on `CC(=O)NC(=O)CCc1ccc(OCCc2nc(-c3ccccc3)oc2C)cc1` yielded a melting point of 128 to 129 °C.
`O=C(C=CCc1c[nH]c2ccccc12)NC(C(=O)OCc1ccccc1)C(=O)OCc1ccccc1` showed a melting point of 162 to 163 °C.
`CC1C(=O)Nc2cccc3c2N1C(=O)C3c1ccccc1` (centres undefined) showed a melting point of 208 to 211 °C.
`Nc1ccn(C2COC(CO)C2O)c(=O)n1` (centres undefined) gave a melting point of 235 °C.
In the case of `CCOC(=O)c1c(O)c2cc(F)ccc2n(Cc2ccccc2)c1=O`, the melting point is reported as 129 °C.
With `CCCN(CCC)C1CCc2c(ccc3c2C(=O)C(=O)N3)C1` (centres undefined) the melting point was 83 to 86 °C.
`CCN(CC)CC1CCN(c2c(F)cc3c(=O)c(C(=O)O)cn(CC)c3c2F)C1` (centres undefined) showed a melting point of 210 to 211 °C.
Compound `O=C(N[C@@H]1CC(=O)N(Cc2ccccc2)C1=O)OCc1ccccc1` has a melting point of 143 to 144 °C.
Work on `Cn1c(SCc2ccccc2)nc2c(c1=O)NCN2C(c1ccccc1)(c1ccccc1)c1ccccc1` yielded a melting point of 255 to 258 °C.
For `O=C(CN1CCOCC1)Nc1cccc2nc(N[C@@H]3CCc4ccccc43)ccc12`, the melting point was 179 °C.
Compound `CCOC(=O)CC1(NC(C)=O)Cc2ccccc2C1` has a melting point of 72 to 73 °C.
`Cc1nc(Nc2cccc(C(F)(F)F)c2)c2ccccc2c1Cc1ccc(Cl)nc1` gave a melting point of 137 °C.
Work on `Nc1ccc(OC(F)(F)F)cc1C(=O)O` yielded a melting point of 142 to 144 °C.
For `OC1=Cc2ccccc2C=Cc2ccccc21`, the melting point was 120 to 121 °C.
`Nc1ccc2c(c1Br)COC2=O` gave a melting point of 176 to 180 °C.
With `O=C(O)CCCc1ccc(C(=O)C=Cc2ccccc2)cc1` the melting point was 111 to 112 °C.
Work on `CSC1CC(c2cc(Cl)c(C)c(Cl)c2)=NNC1=O` (centres undefined) yielded a melting point of 112 to 115 °C.
In the case of `c1ccc(Sc2ccc(-c3ccccc3)s2)cc1`, the melting point is reported as 72.5 to 74.5 °C.
`CC1=C(C(=O)OC2CCCC2)C(c2cccc([N+](=O)[O-])c2)C([N+](=O)[O-])=C(C)N1` (centres undefined) gave a melting point of 174 °C.
`OC(CCSC(=S)Nc1ccc(Cl)cn1)c1ccccc1` (centres undefined) showed a melting point of 91 °C.
Work on `COc1ccc(N2CCN(c3ccc(-n4cnn(C(C)C)c4=O)cc3)CC2)cc1` yielded a melting point of 210 °C.
Work on `CN1CCN(c2ccc(/C=C/C(=O)O)cc2)CC1` yielded a melting point of 223 to 226 °C.
`CN1c2ccccc2C(c2ccccc2Cl)=Nc2cccnc21` gave a melting point of 132 to 133 °C.
Work on `CCCCCCCCCCCCCCCCCCOc1cccc(N(CC(=O)O)CC(=O)O)c1` yielded a melting point of 130 to 133 °C.
With `CCOC(=O)C1CCc2c([nH]c3ccc(C)cc23)C1` (centres undefined) the melting point was 117 to 118 °C.
With `COc1ccc(-c2ccc(OC(CCC3=CCCCC3)C(=O)O)cc2)cc1` (centres undefined) the melting point was 152 to 154 °C.
Compound `FC(F)(F)c1nncn1-c1ccc(Cl)cc1` has a melting point of 108 °C.
Work on `COc1ccc(C(CC(=O)NCc2ccccc2)N2C(=O)c3ccccc3C2=O)cc1OC` (centres undefined) yielded a melting point of 208 to 210 °C.
In the case of `COC(=O)C1=Cc2cc(-c3ccc(C(C)(C)C)cc3)ccc2S(=O)(=O)CC1`, the melting point is reported as 170 to 172 °C.
For `CCOCc1nc2c(N)nc3ccccc3c2n1CCCCCS(=O)(=O)NC`, the melting point was 175 to 179 °C.
In the case of `COc1cc2c(cc1Cl)C(O)Cc1ccccc1S2` (centres undefined), the melting point is reported as 130 to 132 °C.
`O=C(O)CCCC/C=C(/c1ccc(-c2nc(C(=O)NCCCCC3CCCCC3)co2)cc1)c1cccnc1` showed a melting point of 52 to 56 °C.
Work on `O=C(c1cccs1)N1CCN(c2c([N+](=O)[O-])c(=O)n(Cc3ccccc3)c3ncccc23)CC1` yielded a melting point of 255 °C.
Compound `O=C(NN=Cc1ccnc2ccccc12)C1CCC1` has a melting point of 138 °C.
With `CCOc1cc2c(cc1OCC)[C@@H]1CCCC[C@@H]1N=C2c1ccc(O)cc1` (racemic) the melting point was 232 to 234 °C.
With `COC(=O)c1scc(Cl)c1N` the melting point was 62 to 64 °C.
`CCCCN(CCCC)C(=O)CN1CC(c2ccc3c(c2)OCO3)C(C(=O)O)C1c1ccncc1` (centres undefined) gave a melting point of 131 to 132 °C.
In the case of `O=[N+]([O-])c1ccc2c(c1)SC(c1ccc(Cl)cc1Cl)O2` (centres undefined), the melting point is reported as 106 to 108 °C.
Work on `O=C(O)[C@@H]1Cc2c(ncn2Cc2ccccc2)CN1C(=O)C(c1ccc(Cl)cc1)c1ccc(Cl)cc1` yielded a melting point of 162 to 170 °C.
Compound `OC1CCc2c(Cl)cc(Cl)cc2C1` (centres undefined) has a melting point of 84 to 86 °C.
`CN(CCOc1ccc(Cn2cc(CCC(=O)O)c(-c3ccccc3)c2)cc1)c1ccccn1` showed a melting point of 110 to 111 °C.
In the case of `CCCn1c(=O)c2cc(C(=O)OCC)cn2c2ccccc21`, the melting point is reported as 143 to 144 °C.
In the case of `Cn1cnc2nc(-c3cc(Cl)c(Cl)cc3C(=O)O)nn2c1=S`, the melting point is reported as 298 to 300 °C.
`CCCC1OCC(C)n2c1nc1c(N)nc3ccccc3c12` (centres undefined) showed a melting point of 243 to 268 °C.
Work on `CCc1c(NC(=O)c2cc3c(s2)CCCC3)cccc1-c1cc(N)c(=O)n(C)c1` yielded a melting point of 210 to 211 °C.
Work on `COc1ccc(C(=O)Nc2cc([N+](=O)[O-])ccc2Cl)cc1OC` yielded a melting point of 231 to 232 °C.
In the case of `C[C@@H](c1ccc(F)cc1)N1CCN(c2cc(Oc3cc(F)cc4[nH]c(=O)c(N)nc34)ncn2)CC1`, the melting point is reported as 288 °C.
With `Cc1cc(C(=O)Nc2ccc(S(=O)(=O)C(F)(F)F)cc2Cl)c(O)c(C(C)(C)C)c1` the melting point was 209 to 212 °C.
`COc1cc(CN(C(N)=S)[C@@H](COC(=O)C(C)(C)C)Cc2ccccc2)ccc1OCCN` gave a melting point of 49 °C.
Compound `CCCCOc1cc2c(cc1C)C(=O)CC2(C)C` has a melting point of 59 °C.
`CCC1(c2cccc(OCc3ccc4c(ccc(=O)n4C)c3)c2)CCOCC1` gave a melting point of 139 °C.
Compound `CCOC(=O)/C=C/c1cn(-c2ccc(C(F)(F)F)cn2)nc1C` has a melting point of 131 to 132 °C.
Compound `COCCC1=C(C)C(=Cc2ccc(S(N)(=O)=O)cc2)c2ccc(OC)cc21` has a melting point of 140 °C.
In the case of `O=C[C@H]1CC[C@H](c2ccc(F)cc2)CC1`, the melting point is reported as < 30 °C.
`O=Cc1cc2c3ccccc3c3ccccc3c2o1` gave a melting point of 84 to 85 °C.
With `N#Cc1ccc(Nn2cnnc2)cc1-c1ccc(C(F)(F)F)cc1` the melting point was 140 to 143 °C.
`CC(C)(C)OC(=O)N1CCC(O)(CS(=O)(=O)NC(=O)c2cc(C(F)(F)F)cc(C(F)(F)F)c2)CC1` gave a melting point of 154 to 159 °C.
Compound `CN(C)C(=C[N+](=O)[O-])NCc1ccc(Cl)nc1` has a melting point of 124 to 125 °C.
In the case of `N=C(Nc1cccc([N+](=O)[O-])c1)N1CCCC1`, the melting point is reported as 117 to 118 °C.
Compound `CCOC(=O)/C(N)=C/C(=O)/C=C/c1ccc(Cl)cc1F` has a melting point of 102 to 103 °C.
In the case of `CCCCCCCCC#Cc1ccc(C(=O)O)cc1`, the melting point is reported as 103 °C.
Compound `CCOC(=O)c1nocc1Cn1nnnc1-c1cccc(Cl)c1Cl` has a melting point of 161 to 163 °C.
For `NC(=O)c1cc2ccccc2[nH]1`, the melting point was 231 to 232 °C.
`CC1CCn2c(nc(-c3ccncn3)cc2=O)N1` (centres undefined) showed a melting point of 199 to 201 °C.
`O=C1c2ccc(Cl)cc2CCc2c(O)cccc21` showed a melting point of 185 °C.
For `COc1cc(C=O)c(CCC(=O)O)c(C=O)c1O`, the melting point was 164 to 166 °C.
Compound `CCCCCCCCS(=O)(=O)C(Cl)S(N)(=O)=O` (centres undefined) has a melting point of 73 to 74 °C.
For `CCCCc1nc(Cl)c(CC(=O)OCC)c(Cc2ccc(-c3ccccc3C#N)cc2)n1`, the melting point was 66 °C.
For `CC(C)(C=C(Br)Br)C(=O)Nc1ccc(Cl)cc1`, the melting point was 104 °C.
Compound `O=C(Sc1ccccn1)c1ccccc1` has a melting point of 48 to 50 °C.
`Cc1ccc(O)c(C)c1N(C)C` gave a melting point of 162 to 165 °C.
`Nc1ncnc2c1ncn2C[C@@H]1O[C@H](CO)[C@@H](O)[C@@H]1O` gave a melting point of 107 to 109 °C.
Compound `Cc1c(C)c2c(c(C)c1O)CCC(C)(C#N)O2` (centres undefined) has a melting point of 149 to 151 °C.
In the case of `O=C(O)c1cc(NCCc2ccc([N+](=O)[O-])cc2)ccc1O`, the melting point is reported as 234 to 236 °C.
`CC(C)c1cc(CCCOc2nn(C)cc2CC(=O)O)n(Cc2ccc(Cl)cc2Cl)n1` gave a melting point of 67 to 68 °C.
`NC(=O)N(O)CC1CCC1` gave a melting point of 112 to 113 °C.
`CCCCOc1c(CN2C(=O)c3ccccc3C2=O)n(CCC(=O)O)c(=O)c2cc(Cl)c(Cl)cc12` showed a melting point of 196 to 197 °C.
For `COc1ccc2c(c1)CN(C=O)N=C2Cc1c(Cl)cncc1Cl`, the melting point was 165 to 167 °C.
Compound `Cn1cc(C(=O)NCc2ccc(Cl)cc2)c(=O)c2cccc(C#CCCO)c21` has a melting point of 195 to 197 °C.
